For eight compounds, IC50 results are on record in patent publication US7888380B2, “1,2,4-Triazolylaminoaryl (heteroaryl) sulfonamide derivatives” (Janssen Pharmaceutica, N.V., priority 2004, dated 2011).

Each structure is given as a SMILES string. Counter-ions that a name gives are not always drawn.

In one test the target is T1, VEGF-R2 kinase (Rattus norvegicus, UniProt O08775).
T1 construct: 6xHis (polyhistidine) (N)
The test can be described thus: VEGF-R2 Kinase Screening Assay. It is filed as biochemical. The following applies: 10 μM ATP; rat VEGF-R2 kinase domain; read-out: IC50 (μM) VEGFR. On the procedure:
A kinase reaction mixture was prepared containing 50 mM Tris-HCl pH=8, 10 mM MgCl2, 0.1 mM Na3PO4, 1 mM DTT, 10 μM ATP, 0.025 μM biotinylated peptide substrate and 0.8 μCuries per well ^33P-γ-ATP (2000-3000 Ci/mmol). 70 μL of the kinase reaction mixture was dispensed into each well of a streptavidin coated FlashPlate™ (Cat. # SMP103, NEN, Boston, Mass.). Then 1 μL of test compound stock in 100% DMSO was added to the wells resulting in a final concentration of 1% DMSO in the reaction with a 100 μL final reaction volume. Next, soluble rat tyrosine kinase containing an N-terminal 6×HIS tag was diluted in 50 mM Tris-HCl pH=8.0, 0.1% BSA at a concentration of 5 ng per μL and 30 μL (150 ng enzyme per test well) was added to each well to initiate the reaction. The reaction was incubated for one hour at 30° C. At the end of the 1 h incubation, the reaction was terminated by aspirating the reaction mixture from the plate and washing the wells twice with PBS containing 100 mM EDTA. The PLC1 biotinylated peptide substrate became immobilized on the Flashplate™ and the incorporation of ^33P-γ-ATP was measured by reading the plate on a scintillation counter. Inhibition of the enzymatic activity of the VEGF-R2 kinase was measured by observing a reduced amount of ^33P-γ-ATP incorporated into the immobilized peptide.
(§1) VEGF-R (vascular endothelial growth factor receptor-2) is a fusion protein containing a polyhistidine tag at the N-terminus followed by amino acids 786-1343 of the rat VEGF-R2 kinase domain (GenBank Accession #U93306). CDK1 (cyclin dependent kinase 1) was isolated from insect cells expressing both the human CDK1 catalytic subunit and its positive regulatory subunit cyclin B (New England Biolabs, Beverly, Mass., Cat. # 6020). CDK2 in complex with cyclin A is commercially available (Upstate Biotech, Lake Placid, N.Y.). The HER2 (human epidermal growth factor receptor-2) construct contains a polyhistidine tag at the N-terminus followed by 24 additional amino acids and begins at amino acid 676 followed by the remainder of the HER2 cytoplasmic domain.

The next test addresses T2, HER2 (Homo sapiens, UniProt P04626).
T2 construct: polyhistidine (N)
Briefly: HER2 Kinase Screening Assay. The class given is biochemical. The following applies: 10 μM ATP; >10 or >100 = less than 50% inhibition at highest concentration tested. On the procedure: The HER2 kinase assay was carried out as described above for the VEGF-R kinase assay except that the enzyme was replaced with a human epidermal growth factor receptor-2 (HER2) construct contains a polyhistidine tag at the N-terminus followed by 24 additional amino acids and begins at amino acid 676 (Accession #M11730) followed by the remainder of the HER2 cytoplasmic domain.
as §1

For another test, the system named is HCT-116 colon carcinoma. The test can be described thus: Inhibition of cell proliferation (14C-thymidine incorporation), HCT116. It is filed as cell-based, human. The following applies: Homo sapiens, HCT-116. On the procedure:
(§2) The ability of a test compound to inhibit the proliferation of cell growth was determined by measuring incorporation of ^14C-labelled thymidine into newly synthesized DNA within the cells. This method was used on cell lines derived from carcinomas originating from several tissues such as HeLa cervical adenocarcinoma (American Type Culture Collection (ATCC), Virginia, Cat. #CCL-2), A375 malignant melanoma (ATCC CRL-1619), and HCT-116 colon carcinoma (CCL-247). In this way the effect of a compound on cell growth of cells with many different phenotypes can be determined. Cells were trypsinized and counted and 3000-8000 cells were added to each well of a 96-well CytoStar tissue culture treated scintillating microplate (Amersham #RPNQ0160) in complete medium in a volume of 100 μl. Cells were incubated for 24 hours in complete medium at 37° C. in an atmosphere containing 5% CO2.
(§3) Next, 1 μl of test compound in 100% DMSO was added to the wells of the plate. DMSO only was added to control wells. Cells were incubated for 24 more hours in complete medium at 37° C. in an atmosphere containing 5% CO2. Methyl ^14C-thymidine 56 mCi/mmol (NEN #NEC568 or Amersham #CFA532) was diluted in complete medium and 0.2 uCi/well was added to each well of the CytoStar plate in a volume of 20 ul. The plate was incubated for 24 hours at 37° C. plus 5% CO2 in drug plus ^14C-thymidine. The contents of the plate were discarded into a ^14C radioactive waste container by inverting the plate and the plate was washed twice with 200 μl PBS.
(§4) 200 μl of PBS was added to each well. The top of the plate was sealed with a transparent plate sealer and a white plate backing sealer (Packard #6005199) was applied to the bottom of the plate. The degree of methyl ^14C-thymidine incorporation was quantified on a Packard Top Count.

For another test, the target named is T3, CDK1:Cyclin-B (Homo sapiens, UniProt P06493).
T3 construct: purchased New England Biolabs, Beverly, Mass; 6020; host or cells: insect cells
T3 sequence (P06493 whole entry): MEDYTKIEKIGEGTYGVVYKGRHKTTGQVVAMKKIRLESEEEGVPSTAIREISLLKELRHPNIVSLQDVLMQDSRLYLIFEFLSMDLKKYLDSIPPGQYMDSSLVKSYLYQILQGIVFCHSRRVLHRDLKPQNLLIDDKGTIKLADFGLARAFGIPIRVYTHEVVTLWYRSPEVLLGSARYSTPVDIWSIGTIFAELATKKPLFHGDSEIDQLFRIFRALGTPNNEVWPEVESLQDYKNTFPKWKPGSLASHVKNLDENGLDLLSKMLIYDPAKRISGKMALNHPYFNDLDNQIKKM
T3 sequence (P14635 whole entry partner): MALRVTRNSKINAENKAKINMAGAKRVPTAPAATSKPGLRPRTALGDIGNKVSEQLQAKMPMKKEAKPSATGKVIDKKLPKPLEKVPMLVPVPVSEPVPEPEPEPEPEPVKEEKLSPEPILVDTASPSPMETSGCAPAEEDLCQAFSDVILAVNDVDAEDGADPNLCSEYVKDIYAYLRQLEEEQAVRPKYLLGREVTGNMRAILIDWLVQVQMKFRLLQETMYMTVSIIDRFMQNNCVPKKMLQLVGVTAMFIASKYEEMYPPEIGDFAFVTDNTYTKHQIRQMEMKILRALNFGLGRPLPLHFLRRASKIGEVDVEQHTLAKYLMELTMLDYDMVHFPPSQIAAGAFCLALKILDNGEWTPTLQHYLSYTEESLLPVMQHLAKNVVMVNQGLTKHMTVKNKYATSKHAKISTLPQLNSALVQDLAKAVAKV
The test can be described thus: CDK1 Screening Assay (33P-ATP FlashPlate). It is filed as biochemical. Particulars: 10 μM ATP; >10 or >100 = less than 50% inhibition at highest concentration tested. How it is done: A kinase reaction mixture was prepared containing 50 mM Tris-HCl pH=8, 10 mM MgCl2, 0.1 mM Na3PO4, 1 mM DTT, 10 μM ATP, 0.025 μM biotinylated histone-H1 peptide substrate and 0.2 μCuries per well ^33P-γ-ATP (2000-3000 Ci/mmol). 70 μL of the kinase reaction mixture was dispensed into each well of a streptavidin coated FlashPlate™ (Cat. # SMP103, NEN, Boston, Mass.). Then 1 μL of test compound stock in 100% DMSO was added to the wells resulting in a final concentration of 1% DMSO in the reaction with a 100 μl final reaction volume.
Next, CDK1:Cyclin-B protein was diluted in 50 mM Tris-HCl pH=8.0, 0.1% BSA at a concentration of 1 ng per μL and 30 μL (30 ng enzyme per test well) was added to each well to initiate the reaction. The reaction was incubated for one hour at 30° C. At the end of the 1 h incubation, the reaction was terminated by aspirating the mixture from the plate and washing the wells twice with PBS containing 100 mM EDTA. The histone-H1 biotinylated peptide substrate became immobilized on the Flashplate™ and the incorporation of ^33P-γ-ATP was measured by reading the plate on a scintillation counter. Inhibition of the enzymatic activity of CDK1 was measured by observing a reduced amount of ^33P-γ-ATP incorporated into the immobilized peptide.
as §1

Test [1] has as its system HeLa cervical adenocarcinoma. Briefly: Inhibition of cell proliferation (14C-thymidine incorporation), HeLa. The class given is cell-based. The following applies: Homo sapiens. How it is done:
as §2, §3, §4

T2 sequence (P04626 676-1255 limits assumed): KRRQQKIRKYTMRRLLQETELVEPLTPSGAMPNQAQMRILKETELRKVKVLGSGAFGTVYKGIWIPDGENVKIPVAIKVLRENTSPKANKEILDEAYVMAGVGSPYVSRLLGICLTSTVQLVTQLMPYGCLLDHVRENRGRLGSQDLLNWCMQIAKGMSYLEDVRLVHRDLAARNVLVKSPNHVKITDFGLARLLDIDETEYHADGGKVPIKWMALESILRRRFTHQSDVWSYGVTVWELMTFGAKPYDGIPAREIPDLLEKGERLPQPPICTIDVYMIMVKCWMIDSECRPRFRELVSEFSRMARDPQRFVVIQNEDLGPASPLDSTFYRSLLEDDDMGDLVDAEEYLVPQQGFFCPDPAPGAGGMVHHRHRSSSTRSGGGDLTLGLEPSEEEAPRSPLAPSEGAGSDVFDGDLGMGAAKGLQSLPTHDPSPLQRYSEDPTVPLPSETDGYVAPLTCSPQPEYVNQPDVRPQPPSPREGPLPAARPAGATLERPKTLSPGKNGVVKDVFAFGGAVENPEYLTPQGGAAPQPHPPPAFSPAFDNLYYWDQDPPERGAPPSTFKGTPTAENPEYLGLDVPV
T1 sequence (O08775 786-1343): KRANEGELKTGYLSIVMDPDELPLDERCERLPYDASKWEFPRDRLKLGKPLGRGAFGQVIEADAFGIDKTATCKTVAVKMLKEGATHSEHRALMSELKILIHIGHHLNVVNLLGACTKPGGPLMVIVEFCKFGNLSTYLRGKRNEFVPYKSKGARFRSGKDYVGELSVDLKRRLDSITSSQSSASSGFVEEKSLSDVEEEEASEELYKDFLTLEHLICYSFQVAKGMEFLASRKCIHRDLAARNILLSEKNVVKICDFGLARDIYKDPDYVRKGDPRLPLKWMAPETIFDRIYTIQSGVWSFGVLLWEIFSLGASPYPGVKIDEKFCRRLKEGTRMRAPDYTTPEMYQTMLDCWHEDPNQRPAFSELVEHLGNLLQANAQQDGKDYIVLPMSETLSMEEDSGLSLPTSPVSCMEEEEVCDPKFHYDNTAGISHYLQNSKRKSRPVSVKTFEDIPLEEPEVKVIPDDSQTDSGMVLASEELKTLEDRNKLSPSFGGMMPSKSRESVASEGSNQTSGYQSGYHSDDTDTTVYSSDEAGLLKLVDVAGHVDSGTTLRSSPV

The term IC50 denotes the concentration that inhibits the measured activity by half. Regarding `Nc1nc(Nc2ccc(S(=O)(=O)NC(=O)COCCOCCOCC(=O)O)cc2)nn1C(=O)c1c(F)cccc1F` [Compound 12, {2-[2-(2-{4-[5-amino-1-(2,6-difluoro-benzoyl)-1H-[1,2,4]triazol-3-ylamino]-benzenesulfonylamino}-2-oxo-ethoxy)-ethoxy]-ethoxy}-acetic acid.2TFA salt], the half-maximal inhibitory concentration (IC50) on VEGF-R2 kinase was 16.8 µM; at HER2, more than 100 µM; with HCT-116 colon carcinoma it was more than 10 µM; at CDK1:Cyclin-B it was 0.76 µM; in test [1] it was 30.8 µM.
`Nc1nc(Nc2ccc(S(=O)(=O)NC(=O)[C@@H](N)CO)cc2)nn1C(=O)c1c(F)cccc1F` [Compound 13, 4-[5-amino-1-(2,6-difluoro-benzoyl)-1H-[1,2,4]triazol-3-ylamino]-N—((S)-2-amino-3-hydroxy-propionyl)-benzenesulfonamide]: the half-inhibitory concentration (IC50) was 1.54 µM at VEGF-R2 kinase; not below 10 µM against HER2; 71.2 µM with HCT-116 colon carcinoma; 1.41 µM at CDK1:Cyclin-B; 4.02 µM in test [1].
As to `C[C@@H](N)C(=O)NS(=O)(=O)c1ccc(Nc2nc(N)n(C(=O)c3c(F)cccc3F)n2)cc1` [Compound 14, 4-[5-amino-1-(2,6-difluoro-benzoyl)-1H-[1,2,4]triazol-3-ylamino]-N—((R)-2-amino-propionyl)-benzenesulfonamide], the IC50 is 0.89 µM at VEGF-R2 kinase; not below 10 µM against HER2; 38.5 µM with HCT-116 colon carcinoma; 0.74 µM against CDK1:Cyclin-B; 1.96 µM in test [1].
Turning to `C[C@H](N)C(=O)N[C@@H](C)C(=O)NS(=O)(=O)c1ccc(Nc2nc(N)n(C(=O)c3c(F)cccc3F)n2)cc1.O=C(O)C(F)(F)F.O=C(O)C(F)(F)F.O=C(O)C(F)(F)F` [Compound 15, (S)-2-amino-N—((S)-2-{4-[5-amino-1-(2,6-difluoro-benzoyl)-1H-[1,2,4]triazol-3-ylamino]-benzenesulfonylamino}-1-methyl-2-oxo-ethyl)-propionamide 3 TFA salt], the IC50 was 2.03 µM at VEGF-R2 kinase; not below 10 µM on HER2; 20.8 µM in the test on HCT-116 colon carcinoma; 1.36 µM on CDK1:Cyclin-B; 1.04 µM in test [1].
As to `Nc1nc(Nc2ccc(S(=O)(=O)NC(=O)[C@@H]3CCCN3)cc2)nn1C(=O)c1c(F)cccc1F` [Compound 16, 4-[5-amino-1-(2,6-difluoro-benzoyl)-1H-[1,2,4]triazol-3-ylamino]-N—((S)-pyrrolidine-2-carbonyl)-benzenesulfonamide], the 50% inhibitory concentration (IC50) was determined as 7.31 µM at VEGF-R2 kinase; 50 µM against HER2; 3.94 µM in the test on HCT-116 colon carcinoma; 0.23 µM against CDK1:Cyclin-B; 10.2 µM in test [1].
In the case of `Nc1nc(Nc2ccc(S(=O)(=O)NC(=O)[C@@H](N)CC(=O)O)cc2)nn1C(=O)c1c(F)cccc1F` [Compound 17, (S)-3-amino-4-{4-[5-amino-1-(2,6-difluoro-benzoyl)-1H-[1,2,4]triazol-3-ylamino]-benzenesulfonylamino}-4-oxo-butyric acid], the IC50 is 1.56 µM at VEGF-R2 kinase; 20 µM against HER2; 28.4 µM in the test on HCT-116 colon carcinoma; 0.98 µM against CDK1:Cyclin-B; 58.3 µM in test [1].
As to `CCCCC(=O)NS(=O)(=O)c1ccc(Nc2nc(N)n(C(=O)c3c(F)cccc3F)n2)cc1` [Compound 18, 4-[5-amino-1-(2,6-difluoro-benzoyl)-1H-[1,2,4]triazol-3-ylamino]-N-pentanoyl-benzenesulfonamide], the 50% inhibitory concentration (IC50) at VEGF-R2 kinase was 1.54 µM; at HER2, 5 µM; in the test with HCT-116 colon carcinoma, more than 100 µM; on CDK1:Cyclin-B, 1.93 µM; in test [1], 81.2 µM.
Take `CCCC(=O)NS(=O)(=O)c1ccc(Nc2nc(N)n(C(=O)c3c(F)cccc3F)n2)cc1` [Compound 19, 4-[5-amino-1-(2,6-difluoro-benzoyl)-1H-[1,2,4]triazol-3-ylamino]-N-butyryl-benzenesulfonamide]: the concentration for half-maximal inhibition (IC50) at VEGF-R2 kinase came to 0.77 µM; against HER2, 5 µM; in the test with HCT-116 colon carcinoma, 11.6 µM; against CDK1:Cyclin-B it was 0.28 µM; in test [1], 6.89 µM.
